Where two headings read alike, the source gives them in different places.
Legend:
[1] = system: FOXA1 mRNA; assay: FOXA1 mRNA expression in KPC tumors (RNA-seq, qRT-PCR); assay type: in vivo, KPC mice; conditions: vs intratumor exposure
Description: Pancreas cancer tissues samples or adjacent, uninvolved normal pancreas from vehicle or metarrestin-treated KPC animals collected at 0, 3, and 9 h after last dose of 25 mg/kg metarrestin were homogenized in PureLink Lysis Buffer (PureLink RNA Mini Kit, ThermoFisher Scientific Waltham, MA) at 4 °C using a TissueLyser II bead mill (Qiagen, Valencia, CA, manufactured by Retsch, Newtown, PA). Total RNA was isolated using the Life Technologies PureLink® RNA Mini Kit, quantified on a NanoDrop 1000 spectrophotometer (ThermoFisher Scientific, Waltham, MA). […]
Total RNA libraries were prepared using the Illumina TruSeq® Stranded Total RNA LT (with Ribo-Zero™Human/Mouse/Rat) kit according the manufacturer’s instructions. […] Sequencing output ranged from 89 to 132 million reads per sample. Adapter trimming and base filtering was done using Trimmomatic software version 0.3, and the trimmed reads were aligned to mouse reference genome (GRCm38/mm10) and Ensembl annotation (version 70) using TopHat2 version 2.0.8.
A total of 450 ng of total RNA was used for single-strand complementary DNA synthesis using a SuperScript III First-Strand kit (Invitrogen, Carlsbad, CA). […] Reaction products were read in a Bio-Rad CFX96 Touch real-time PCR detection system (Bio-Rad Laboratories, Hercules, CA). […]

[2] = Steady-state PK in KPC mice fed metarrestin-infused chow; assay type: in vivo; conditions: for Kp / AUC0-24hr Ratio (Tissue/Plasma): 10 mg/kg/day; for Kp / Cmax / Tmax / AUC0-24hr Ratio (Tissue/Plasma): day 10, chow; for Kp: read-out: AUC0-24hr Ratio (Tissue/Plasma); for concentration at 0 h / concentration at 3 h / concentration at 6 h / concentration at 9 h / concentration at 12 h / concentration at 15 h / concentration at 24 h: day 10, 10 mg/kg/day (70 ppm) chow; for Cmax / Tmax: po
[3] = KPC, mouse, plasma, oral, read-out: Plasma concentration
[4] = KPC, mouse, liver, target dose 10 mg/kg/day
[5] = KPC, mouse, plasma, target dose 10 mg/kg/day
[6] = KPC, mouse, spleen, target dose 10 mg/kg/day
[7] = KPC, mouse, tumor, target dose 10 mg/kg/day
[8] = KPC, mouse, tumor, oral, read-out: Tumor concentration

SMILES: N=c1c2c(-c3ccccc3)c(-c3ccccc3)n(Cc3ccccc3)c2ncn1[C@H]1CC[C@H](O)CC1 [metarrestin, Trans-4-(7-benzyl-4-imino-5,6-diphenyl-4,7-dihydro-3H-pyrrolo[2,3-d]pyrimidin-3-yl) cyclohexanol]
- FOXA1 mRNA expression in KPC tumors [1]: Dose-dependent normalization
- intratumor AUC0–24h ([2]; 10 mg/kg PO chow): 80,600 h ng/mL
- intratumor AUC0–24h ([2]; 10 mg/kg PO steady-state chow): 96,100 h ng/mL
- intratumor AUC levels ([2]; 10 mg/kg dosing with solid or liquid formulations): > 80,000 ng h/mL
- Kp ([2]; KPC, mouse, liver, oral, liver/plasma, target dose 10 mg/kg/day): > 20
- AUC(0-t) ([2]; KPC, mouse, oral, plasma, day 10, chow 70 ppm, target dose 10 mg/kg/day, read-out: AUC0-24hr): 4160 ng·h/mL
- Kp ([2]; KPC, mouse, pancreatic tumor, oral, tumor/plasma, target dose 10 mg/kg/day): > 20
- concentration at 0 h [2, 3]: 0.46 µM
- concentration at 3 h [2, 3]: 0.33 µM
- concentration at 6 h [2, 3]: 0.3 µM
- concentration at 9 h [2, 3]: 0.5 µM
- concentration at 12 h [2, 3]: 0.43 µM
- concentration at 15 h [2, 3]: 0.36 µM
- concentration at 24 h [2, 3]: 0.27 µM
- Cmax [2, 4]: 7250 ng/mL
- Tmax [2, 4]: 12 h
- Cmax [2, 5]: 237 ng/mL
- Tmax [2, 5]: 9 h
- Cmax [2, 6]: 5840 ng/mL
- Tmax [2, 6]: 15 h
- Cmax [2, 7]: 5100 ng/mL
- Tmax [2, 7]: 9 h
- Kp ([2]; KPC, mouse, spleen, oral, spleen/plasma, target dose 10 mg/kg/day): > 20
- concentration at 0 h [2, 8]: 7.9 µM
- concentration at 3 h [2, 8]: 10.3 µM
- concentration at 6 h [2, 8]: 8 µM
- concentration at 9 h [2, 8]: 10.8 µM
- concentration at 12 h [2, 8]: 10.7 µM
- concentration at 15 h [2, 8]: 7.2 µM
- concentration at 24 h [2, 8]: 6.7 µM
- AUC0-24hr Ratio (Tissue/Plasma) ([2]; liver/plasma, target dose 10 mg/kg/day): 37
- AUC0-24hr ([2]; liver, day 10, chow 70 ppm, target dose 10 mg/kg/day): 153000 ng●hr/mL
- AUC0-24hr Ratio (Tissue/Plasma) ([2]; spleen/plasma, target dose 10 mg/kg/day): 26
- AUC0-24hr ([2]; spleen, day 10, chow 70 ppm, target dose 10 mg/kg/day): 109000 ng●hr/mL
- AUC0-24hr Ratio (Tissue/Plasma) ([2]; tumor/plasma, target dose 10 mg/kg/day): 23
- AUC0-24hr ([2]; tumor, day 10, chow 70 ppm, target dose 10 mg/kg/day): 96100 ng●hr/mL

From publication PMC6267684, “Pharmacokinetic evaluation of the PNC disassembler metarrestin in wild-type and Pdx1-Cre;LSL-Kras^G12D/+;Tp53^R172H/+ (KPC) mice, a genetically engineered model of pancreatic cancer” (Cancer Chemotherapy and Pharmacology, 2018)
